ChEMBL document CHEMBL5380818, “BAY-6096: A Potent, Selective, and Highly Water-Soluble Adrenergic α2B Antagonist” (J Med Chem, 2023)
In brackets after ≈: the same amount, converted by molar mass. Each block holds one molecule with its values, some of them ahead of it.

Columns and labels:
[1] = Mutagenecity in Salmonella typhimurium in presence of s9 fraction by Ames test; format: toxicity, subcellular; settings: salmonella enterica subsp. enterica serovar typhimurium
[2] = Solubility of the compound in pH 7 shaken for 24 hrs; format: physicochemical; settings: buffer
[3] = Metabolic stability in cryopreserved dog liver hepatocytes at 10 uM incubated upto 4 hrs by LC/MS/MS analysis; format: ADME, cell-based, Canis lupus familiaris, Hepatocyte
[4] = Chemical stability of the compound assessed as decomposition at pH 7 measured upto 24 hrs; format: physicochemical; settings: buffer, pH 7, 24 h
[5] = Chemical stability of the compound assessed as decomposition at pH 1 measured upto 24 hrs; format: physicochemical; settings: buffer, pH 1, 24 h
[6] = Chemical stability of the compound assessed as decomposition at pH 10 measured upto 24 hrs; format: physicochemical; settings: buffer, pH 10, 24 h
[7] = Metabolic stability in cryopreserved human liver hepatocytes at 10 uM incubated upto 4 hrs by LC/MS/MS analysis; format: ADME, cell-based, Hepatocyte
[8] = Permeability across apical to basolateral side human Caco-2 cells incubated for 2 hrs measured by LC/MS/MS analysis; format: ADME, cell-based; settings: caco-2, 2 h
[9] = Metabolic stability in rat liver microsomes at pH 7.4 in presence of NADPH/UDPGA by LC/MS/MS analysis; format: ADME, Microsome
[10] = Metabolic stability in dog liver microsomes at pH 7.4 in presence of NADPH/UDPGA by LC/MS/MS analysis; format: ADME, Canis lupus familiaris, Microsome
[11] = Metabolic stability in cryopreserved rat liver hepatocytes at 10 uM incubated upto 4 hrs by LC/MS/MS analysis; format: ADME, cell-based, Hepatocyte
[12] = Chemical stability of the compound in 0.9% NaCl at pH 7.4 measured for 13 week at 40 degC; format: physicochemical; settings: buffer, pH 7.4, 2184 h; time 13 weeks
[13] = Clearance in dog plasma 0.3 mg/kg, iv measured 0.033 to 24 hrs by LC-MS/MS analysis; format: ADME, organism-based, Canis lupus familiaris; settings: time 0.033-24 hrs
[14] = Volume of distribution at steady state in dog plasma 0.3 mg/kg, iv measured 0.033 to 24 hrs by LC-MS/MS analysis; format: ADME, organism-based, Canis lupus familiaris; settings: time 0.033-24 hrs, read-out: Vdss
[15] = Mean residence time in Wistar rat plasma 0.3 mg/kg, iv measured upto 24 hrs by LC-MS/MS analysis; format: ADME, organism-based; settings: in vivo
Cytochrome P450 2C8 = molecular target: T1, Cytochrome P450 2C8 (Homo sapiens, UniProt P10632); assay: Inhibition of human liver microsome CYP2C8 at 0.6 to 20 uM measured by LC/MS/MS analysis; format: ADME; settings: microsomes, dose 0.6-20 µM
T1 sequence (P10632 whole entry): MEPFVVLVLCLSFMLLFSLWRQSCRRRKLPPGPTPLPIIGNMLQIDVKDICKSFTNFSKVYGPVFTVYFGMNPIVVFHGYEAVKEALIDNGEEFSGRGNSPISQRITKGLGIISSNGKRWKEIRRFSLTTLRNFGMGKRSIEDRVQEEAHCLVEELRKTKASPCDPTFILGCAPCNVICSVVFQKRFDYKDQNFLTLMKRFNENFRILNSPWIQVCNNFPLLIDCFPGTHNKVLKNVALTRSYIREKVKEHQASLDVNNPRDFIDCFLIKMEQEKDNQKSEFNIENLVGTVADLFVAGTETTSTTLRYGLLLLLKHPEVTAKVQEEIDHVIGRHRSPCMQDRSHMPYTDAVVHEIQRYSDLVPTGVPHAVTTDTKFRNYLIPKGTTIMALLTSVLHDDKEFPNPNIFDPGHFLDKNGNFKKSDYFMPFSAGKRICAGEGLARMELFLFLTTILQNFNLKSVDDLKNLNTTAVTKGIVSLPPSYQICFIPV

[16] = molecular target: Voltage-dependent L-type calcium channel subunit alpha-1C (Homo sapiens, UniProt Q13936); assay: Inhibition of human Cav1.2 channel; format: toxicity
[17] = Plasma protein binding in dog plasma assessed as unbound fraction by equilibrium dialysis base LC-MS/MS analysis; format: ADME, cell-free, Canis lupus familiaris
[18] = Plasma protein binding in human plasma assessed as unbound fraction by equilibrium dialysis base LC-MS/MS analysis; format: ADME, cell-free
[19] = Plasma protein binding in monkey plasma assessed as unbound fraction by equilibrium dialysis base LC-MS/MS analysis; format: ADME, cell-free, Macaca mulatta; settings: rhesus monkey
[20] = Clearance in Wistar rat plasma 0.3 mg/kg, iv measured upto 24 hrs by LC-MS/MS analysis; format: ADME, organism-based; settings: in vivo
[21] = Chemical stability of the compound in 0.9% NaCl at pH 7.4 measured upto 1 week at 90 degC; format: physicochemical; settings: buffer, pH 7.4, 168 h; time < 1 weeks
[22] = Plasma protein binding in rat plasma assessed as unbound fraction by equilibrium dialysis base LC-MS/MS analysis; format: ADME, cell-free
[23] = Stability of the compound assessed as no adsorption to the sterile filter at pH 7.4 in 0.9% NaCl by measuring feasibility of sterilization at 121 degC for 15 mins using HPLC analysis; format: physicochemical; settings: buffer
[24] = Chemical stability of the compound at pH 1 measured upto 7 days; format: physicochemical; settings: buffer, pH 1, 168 h; time < 7 day
[25] = Stability of the compound assessed as no adsorption to the sterile filter at pH 7.4 in 0.9% NaCl by measuring feasibility of sterilization using HPLC analysis; format: physicochemical; settings: buffer
Cytochrome P450 2C9 = Cytochrome P450 2C9 (Homo sapiens, UniProt P11712); assay: Inhibition of human liver microsome CYP2C9 at 0.6 to 20 uM measured by LC/MS/MS analysis; format: ADME; settings: microsomes, dose 0.6-20 µM
[26] = Chemical stability of the compound at pH 7 measured upto 7 days; format: physicochemical; settings: buffer, pH 7, 168 h; time < 7 day
[27] = Volume of distribution at steady state in Wistar rat plasma 0.3 mg/kg, iv measured upto 24 hrs by LC-MS/MS analysis; format: ADME, organism-based; settings: in vivo
Cytochrome P450 2D6 = Cytochrome P450 2D6 (Homo sapiens, UniProt P10635); assay: Inhibition of human liver microsome CYP2D6 at 0.6 to 20 uM measured by LC/MS/MS analysis; format: ADME; settings: microsomes, dose 0.6-20 µM
[28] = molecular target: Voltage-gated inwardly rectifying potassium channel KCNH2 (Homo sapiens, UniProt Q12809); assay: Inhibition of hERG by electrode whole cell voltage clamp method; format: toxicity
[29] = Chemical stability of the compound at pH 10 measured upto 7 days; format: physicochemical; settings: buffer, pH 10, 168 h; time < 7 day
[30] = molecular target: Sodium channel protein type 5 subunit alpha (Homo sapiens, UniProt Q14524); assay: Inhibition of human Nav1.5 channel; format: toxicity
Cytochrome P450 3A4 [31] = molecular target: T2, Cytochrome P450 3A4 (Homo sapiens, UniProt P08684); assay: Inhibition of human liver microsome CYP3A4 at 0.6 to 20 uM measured by LC/MS/MS analysis; format: ADME; settings: microsomes, dose 0.6-20 µM
Cytochrome P450 3A4 [32] = molecular target: T2, Cytochrome P450 3A4; assay: Induction of human hepatocyte CYP3A4 treated upto 211 uM for 48 hrs by measuring mRNA expression using delta delta Ct method; format: ADME, cell-based; settings: hepatocytes
Cytochrome P450 1A2 [33] = molecular target: T3, Cytochrome P450 1A2 (Homo sapiens, UniProt P05177); assay: Inhibition of human liver microsome CYP1A2 at 0.6 to 20 uM measured by LC/MS/MS analysis; format: ADME; settings: microsomes, dose 0.6-20 µM
T3 sequence (P05177 whole entry): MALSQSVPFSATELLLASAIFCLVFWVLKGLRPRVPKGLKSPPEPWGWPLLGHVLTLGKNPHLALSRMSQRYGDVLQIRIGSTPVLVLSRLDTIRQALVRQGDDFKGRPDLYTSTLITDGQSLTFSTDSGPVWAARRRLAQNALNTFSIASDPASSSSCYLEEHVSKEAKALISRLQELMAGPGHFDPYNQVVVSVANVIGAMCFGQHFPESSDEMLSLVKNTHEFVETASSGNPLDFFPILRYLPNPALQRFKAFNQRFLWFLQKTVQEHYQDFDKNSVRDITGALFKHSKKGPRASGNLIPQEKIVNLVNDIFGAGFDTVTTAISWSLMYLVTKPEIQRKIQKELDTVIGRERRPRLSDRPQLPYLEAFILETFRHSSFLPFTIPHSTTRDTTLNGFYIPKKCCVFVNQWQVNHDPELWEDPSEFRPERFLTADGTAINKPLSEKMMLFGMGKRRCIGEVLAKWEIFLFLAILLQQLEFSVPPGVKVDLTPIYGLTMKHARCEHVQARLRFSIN

Cytochrome P450 1A2 [34] = molecular target: T3, Cytochrome P450 1A2; assay: Induction of human hepatocyte CYP1A2 treated upto 211 uM for 48 hrs by measuring mRNA expression using delta delta Ct method; format: ADME, cell-based; settings: hepatocytes
[35] = molecular target: T4, Alpha-2B adrenergic receptor (Homo sapiens, UniProt P18089); assay: Antagonist activity at human recombinant adrenergic alpha2B receptor expressed in CHO cell treated with compound for 5 mins followed by norepinephrine measured for 50 secs by microtitre plate method; format: functional, cell-based
T4 sequence (P18089 whole entry): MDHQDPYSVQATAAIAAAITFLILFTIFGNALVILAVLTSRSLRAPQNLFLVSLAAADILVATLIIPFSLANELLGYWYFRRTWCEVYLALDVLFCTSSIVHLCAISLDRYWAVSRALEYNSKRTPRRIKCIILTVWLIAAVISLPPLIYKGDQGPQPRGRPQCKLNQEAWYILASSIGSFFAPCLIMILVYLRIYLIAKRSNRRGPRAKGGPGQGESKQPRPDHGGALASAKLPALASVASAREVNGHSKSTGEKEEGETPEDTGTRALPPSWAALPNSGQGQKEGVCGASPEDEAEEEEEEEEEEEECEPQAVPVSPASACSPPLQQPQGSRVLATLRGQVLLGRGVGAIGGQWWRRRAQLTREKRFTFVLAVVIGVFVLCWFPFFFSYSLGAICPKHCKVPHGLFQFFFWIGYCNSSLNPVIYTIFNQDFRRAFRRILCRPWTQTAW

T2 sequence (P08684 whole entry): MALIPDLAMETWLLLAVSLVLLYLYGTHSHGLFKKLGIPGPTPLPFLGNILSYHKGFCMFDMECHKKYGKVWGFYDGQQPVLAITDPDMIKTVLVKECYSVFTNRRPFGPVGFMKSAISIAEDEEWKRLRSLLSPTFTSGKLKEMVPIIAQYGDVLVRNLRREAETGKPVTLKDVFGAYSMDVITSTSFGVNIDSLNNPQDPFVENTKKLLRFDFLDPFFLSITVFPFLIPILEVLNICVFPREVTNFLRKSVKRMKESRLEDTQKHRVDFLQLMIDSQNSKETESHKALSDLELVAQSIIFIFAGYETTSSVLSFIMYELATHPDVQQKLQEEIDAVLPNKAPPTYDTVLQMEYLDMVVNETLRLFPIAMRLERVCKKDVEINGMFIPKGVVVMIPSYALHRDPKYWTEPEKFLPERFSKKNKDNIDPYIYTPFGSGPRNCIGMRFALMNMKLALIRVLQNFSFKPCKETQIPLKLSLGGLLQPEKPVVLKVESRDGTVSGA
Cytochrome P450 2C9, sequence (P11712 whole entry): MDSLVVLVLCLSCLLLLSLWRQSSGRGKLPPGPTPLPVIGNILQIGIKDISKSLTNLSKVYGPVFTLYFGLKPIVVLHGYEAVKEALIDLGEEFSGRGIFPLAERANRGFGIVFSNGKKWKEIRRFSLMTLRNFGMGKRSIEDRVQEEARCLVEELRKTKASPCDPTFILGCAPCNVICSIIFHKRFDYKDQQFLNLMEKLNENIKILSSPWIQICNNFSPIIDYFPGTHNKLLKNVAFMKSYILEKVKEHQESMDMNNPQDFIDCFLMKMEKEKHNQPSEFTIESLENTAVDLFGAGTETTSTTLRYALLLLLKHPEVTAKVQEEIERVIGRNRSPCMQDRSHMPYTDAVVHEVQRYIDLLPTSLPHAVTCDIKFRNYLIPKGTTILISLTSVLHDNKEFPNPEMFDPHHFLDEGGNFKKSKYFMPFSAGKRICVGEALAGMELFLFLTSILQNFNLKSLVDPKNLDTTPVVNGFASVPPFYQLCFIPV
Cytochrome P450 2D6, sequence (P10635 whole entry): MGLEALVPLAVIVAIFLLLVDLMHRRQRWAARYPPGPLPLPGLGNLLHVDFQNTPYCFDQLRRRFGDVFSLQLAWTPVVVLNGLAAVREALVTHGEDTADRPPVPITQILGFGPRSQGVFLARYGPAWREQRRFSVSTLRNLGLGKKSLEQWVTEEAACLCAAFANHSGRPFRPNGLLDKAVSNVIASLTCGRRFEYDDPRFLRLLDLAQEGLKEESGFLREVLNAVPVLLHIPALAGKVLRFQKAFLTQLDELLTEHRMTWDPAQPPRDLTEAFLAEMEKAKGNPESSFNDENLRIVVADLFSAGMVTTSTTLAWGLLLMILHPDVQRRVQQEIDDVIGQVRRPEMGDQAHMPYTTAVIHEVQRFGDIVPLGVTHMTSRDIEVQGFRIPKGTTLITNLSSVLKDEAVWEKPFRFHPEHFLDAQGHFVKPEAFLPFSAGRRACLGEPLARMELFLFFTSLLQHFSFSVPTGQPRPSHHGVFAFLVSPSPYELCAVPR
Sodium channel protein type 5 subunit alpha, sequence (Q14524 whole entry): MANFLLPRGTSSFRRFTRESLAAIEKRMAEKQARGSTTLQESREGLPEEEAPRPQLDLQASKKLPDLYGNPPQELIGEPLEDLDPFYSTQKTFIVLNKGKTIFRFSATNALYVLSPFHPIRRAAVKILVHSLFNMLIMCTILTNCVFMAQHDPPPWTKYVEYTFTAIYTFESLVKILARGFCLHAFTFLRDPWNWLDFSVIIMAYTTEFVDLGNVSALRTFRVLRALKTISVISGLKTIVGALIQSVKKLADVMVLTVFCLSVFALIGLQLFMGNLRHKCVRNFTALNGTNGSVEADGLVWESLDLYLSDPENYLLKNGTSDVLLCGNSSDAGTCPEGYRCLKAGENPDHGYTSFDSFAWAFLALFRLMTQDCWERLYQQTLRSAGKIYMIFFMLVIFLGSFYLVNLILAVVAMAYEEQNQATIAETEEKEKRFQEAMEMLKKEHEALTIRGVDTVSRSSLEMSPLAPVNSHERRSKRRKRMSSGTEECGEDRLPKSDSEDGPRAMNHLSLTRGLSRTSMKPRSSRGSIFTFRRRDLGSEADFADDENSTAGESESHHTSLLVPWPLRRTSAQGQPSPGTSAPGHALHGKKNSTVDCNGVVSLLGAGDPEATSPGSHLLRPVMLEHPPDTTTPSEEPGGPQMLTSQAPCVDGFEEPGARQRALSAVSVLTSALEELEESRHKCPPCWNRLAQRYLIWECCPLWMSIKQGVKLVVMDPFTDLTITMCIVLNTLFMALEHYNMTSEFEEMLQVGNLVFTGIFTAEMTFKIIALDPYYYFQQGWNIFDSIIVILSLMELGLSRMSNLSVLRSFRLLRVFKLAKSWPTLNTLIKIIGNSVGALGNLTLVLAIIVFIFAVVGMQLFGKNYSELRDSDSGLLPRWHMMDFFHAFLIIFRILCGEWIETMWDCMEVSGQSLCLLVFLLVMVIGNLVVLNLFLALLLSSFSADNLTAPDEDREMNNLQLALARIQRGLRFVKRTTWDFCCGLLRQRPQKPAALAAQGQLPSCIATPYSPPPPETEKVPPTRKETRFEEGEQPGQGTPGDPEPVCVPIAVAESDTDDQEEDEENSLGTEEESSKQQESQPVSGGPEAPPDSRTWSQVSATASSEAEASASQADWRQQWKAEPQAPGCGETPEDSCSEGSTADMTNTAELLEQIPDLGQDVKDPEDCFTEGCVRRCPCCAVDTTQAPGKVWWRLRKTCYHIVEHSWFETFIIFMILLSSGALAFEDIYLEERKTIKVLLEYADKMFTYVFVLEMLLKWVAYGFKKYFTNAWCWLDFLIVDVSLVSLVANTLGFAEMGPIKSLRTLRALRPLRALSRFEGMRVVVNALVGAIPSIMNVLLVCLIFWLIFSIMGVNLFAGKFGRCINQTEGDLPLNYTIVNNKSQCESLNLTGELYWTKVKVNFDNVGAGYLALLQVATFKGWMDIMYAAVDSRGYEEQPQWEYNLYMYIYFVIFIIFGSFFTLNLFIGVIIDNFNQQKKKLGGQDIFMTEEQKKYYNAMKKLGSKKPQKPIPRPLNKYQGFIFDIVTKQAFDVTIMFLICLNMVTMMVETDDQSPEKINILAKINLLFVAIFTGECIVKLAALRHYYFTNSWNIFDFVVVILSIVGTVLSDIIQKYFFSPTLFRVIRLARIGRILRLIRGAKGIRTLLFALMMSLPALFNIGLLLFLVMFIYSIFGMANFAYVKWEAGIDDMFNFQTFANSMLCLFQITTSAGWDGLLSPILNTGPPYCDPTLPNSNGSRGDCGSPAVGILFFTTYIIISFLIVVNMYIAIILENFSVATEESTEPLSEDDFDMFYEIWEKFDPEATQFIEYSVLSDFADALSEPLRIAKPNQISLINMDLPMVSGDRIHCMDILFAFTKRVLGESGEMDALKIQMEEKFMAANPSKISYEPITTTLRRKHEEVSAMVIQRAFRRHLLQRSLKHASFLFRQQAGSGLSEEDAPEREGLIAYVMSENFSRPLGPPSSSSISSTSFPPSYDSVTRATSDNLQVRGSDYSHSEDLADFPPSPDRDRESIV
Voltage-gated inwardly rectifying potassium channel KCNH2, sequence (Q12809 whole entry): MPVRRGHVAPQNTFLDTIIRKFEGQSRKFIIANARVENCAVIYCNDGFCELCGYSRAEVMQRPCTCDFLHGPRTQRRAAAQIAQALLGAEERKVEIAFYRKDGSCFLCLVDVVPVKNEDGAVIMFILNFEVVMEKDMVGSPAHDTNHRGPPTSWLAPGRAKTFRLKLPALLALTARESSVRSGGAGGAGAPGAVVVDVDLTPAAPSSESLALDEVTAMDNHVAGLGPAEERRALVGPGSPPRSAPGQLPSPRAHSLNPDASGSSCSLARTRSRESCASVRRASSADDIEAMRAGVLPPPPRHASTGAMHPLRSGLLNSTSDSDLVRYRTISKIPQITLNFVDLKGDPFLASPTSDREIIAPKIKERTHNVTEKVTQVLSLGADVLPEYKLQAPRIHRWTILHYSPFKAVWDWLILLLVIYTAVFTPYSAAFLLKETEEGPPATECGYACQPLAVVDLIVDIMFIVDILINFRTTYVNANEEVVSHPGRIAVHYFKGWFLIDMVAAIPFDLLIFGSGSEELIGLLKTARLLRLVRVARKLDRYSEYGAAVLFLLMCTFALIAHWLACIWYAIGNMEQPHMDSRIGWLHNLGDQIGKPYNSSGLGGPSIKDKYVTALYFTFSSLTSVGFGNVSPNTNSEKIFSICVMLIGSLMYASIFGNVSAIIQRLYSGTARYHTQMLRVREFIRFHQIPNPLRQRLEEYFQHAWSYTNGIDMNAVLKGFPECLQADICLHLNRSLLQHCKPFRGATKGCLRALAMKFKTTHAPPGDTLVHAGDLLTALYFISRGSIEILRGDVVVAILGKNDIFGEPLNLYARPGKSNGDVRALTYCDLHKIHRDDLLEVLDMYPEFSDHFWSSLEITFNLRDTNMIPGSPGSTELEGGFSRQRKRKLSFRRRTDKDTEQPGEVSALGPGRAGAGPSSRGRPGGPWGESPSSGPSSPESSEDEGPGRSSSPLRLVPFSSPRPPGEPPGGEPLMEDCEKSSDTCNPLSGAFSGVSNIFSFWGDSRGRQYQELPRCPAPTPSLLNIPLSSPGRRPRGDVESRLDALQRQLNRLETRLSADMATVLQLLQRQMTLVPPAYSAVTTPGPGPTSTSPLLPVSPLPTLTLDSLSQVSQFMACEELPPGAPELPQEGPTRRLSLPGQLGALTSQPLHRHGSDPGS

Structure (SMILES): CNc1cc[n+](CCNC(=O)c2ccc3c(c2)ncn3-c2c(C)noc2C)cc1.O=C[O-]
Activity [1]: Non-Toxic

Structure (SMILES): Cc1noc(C)c1N
Activity [1]: Non-Toxic

Structure (SMILES): Cc1noc(C)c1-n1cnc2cc(N)ccc21
Activity [1]: Toxic

solubility thermodynamic at 24 h [2]: 20 µg/mL (≈ 53.7 µM)
Structure (SMILES): COc1ccccc1-n1cnc2cc(NC(=O)CCc3ccccn3)ccc21

Structure (SMILES): CNc1cc[n+](CC(=O)Nc2cnc3c(c2)ncn3-c2ccccc2OC)cc1.O=C[O-]
Activity [1]: Toxic

Structure (SMILES): CNc1cc[n+](CC(=O)Nc2ccc3c(c2)ncn3-c2c(C)noc2C)cc1.O=C[O-]
Stability [3]: Stable | Stability [4]: Stable | Stability [5]: Stable | Stability [6]: Stable | Stability [7]: Stable | permeability [8]: 0.36 ×10⁻⁶ cm/s | Stability [9]: Stable | Stability [10]: Stable | Stability [11]: Stable | Activity [1]: Toxic

Structure (SMILES): CNc1cc[n+](CC(=O)Nc2cccc(C)c2)cc1.O=C[O-]
Activity [1]: Non-Toxic

Structure (SMILES): CNc1ccncc1
Activity [1]: Non-Toxic

Stability [12]: Stable | clearance [13]: 26.7 mL/min/kg | Vd [14]: 0.6 L/kg | MRT [15]: 6 min | inhibition (INH) (Cytochrome P450 2C8): Not Active | Fu [17]: 82% | Fu [18]: 85% | Fu [19]: 92% | permeability [8]: 0.3 ×10⁻⁶ cm/s | CL [20]: 71.7 mL/min/kg | Stability [21]: Stable | Fu [22]: 79% | Stability [23]: Stable | Stability [24]: Stable | Stability [25]: Stable | inhibition (INH) (Cytochrome P450 2C9): Not Active | Stability [26]: Stable | Vdss [27]: 0.5 L/kg | inhibition (INH) (Cytochrome P450 2D6): Not Active | Stability [29]: Stable | inhibition (INH) (Cytochrome P450 3A4 [31]): Not Active | Activity (Cytochrome P450 3A4 [32]): Not Active | inhibition (INH) (Cytochrome P450 1A2 [33]): Not Active | Activity (Cytochrome P450 1A2 [34]): Not Active
Structure (SMILES): CNc1cc[n+](CCNC(=O)c2ccn3c(-c4c(C)noc4C)cnc3c2)cc1.[Cl-]
inhibition (INH) [16]: Not Active | Activity [1]: Non-Toxic | inhibition (INH) [28]: Not Active | inhibition (INH) [30]: Not Active

IC50 [35]: 7.05 µM
Structure (SMILES): CNc1cc[n+](CC(Nc2ccc3c(c2)ncn3-c2c(C)noc2C)C(F)(F)F)cc1 (racemic)

solubility thermodynamic at 24 h [2]: 300 µg/mL (≈ 1070 µM)
Structure (SMILES): COc1ccccc1-n1cnc2cc(NC(C)=O)ccc21
